What all share (type): functional
The test system of assay [1] is Rattus norvegicus. The experiment in a line: Anti-inflammatory activity inRattus norvegicus albino (rat) assessed as inhibition of carrageenan-induced paw edema at 100 mg/kg administered 1 hr prior to carrageenan-challenge measured after 1 hr by plethysmometric analysis relative to control. Background: The carrageenan paw model is a standard test of acute inflammation.

Assay [2] deals with Staphylococcus aureus. In words: Antibacterial activity against Staphylococcus aureus at 100 ug/ml after 24 hr by paper disk diffusion method. Particulars: read-out: IZ. On the technique in general: In agar diffusion tests the substance spreads into inoculated agar from a disc or well.
The test system of assay [3] is Staphylococcus aureus. The experiment in a line: Antibacterial activity against Staphylococcus aureus at 50 ug/ml after 24 hr by paper disk diffusion method. Particulars: read-out: IZ.
Assay [4] deals with Escherichia coli. In words: Antibacterial activity against Escherichia coli at 50 ug/ml after 24 hr by paper disk diffusion method. Particulars: read-out: IZ.
Assay [5] concerns Rattus norvegicus. In words: Anti-inflammatory activity inRattus norvegicus albino (rat) assessed as inhibition of carrageenan-induced paw edema at 100 mg/kg administered 1 hr prior to carrageenan-challenge measured after 3 hr by plethysmometric analysis relative to control.
The test system of assay [6] is Escherichia coli. The experiment in a line: Antibacterial activity against Escherichia coli at 100 ug/ml after 24 hr by paper disk diffusion method. Particulars: read-out: IZ.
The test system of assay [7] is Rattus norvegicus. The experiment in a line: Anti-inflammatory activity inRattus norvegicus albino (rat) assessed as inhibition of carrageenan-induced paw edema at 100 mg/kg administered 1 hr prior to carrageenan-challenge measured after 2 hr by plethysmometric analysis relative to control.

On to `CCOC(=O)C1=C(N)Oc2c(c(=O)[nH]c3ccccc23)C1c1ccccc1Cl` (centres undefined), for which the figures for the inhibition in vivo at 100 mg/kg in the assay on Rattus norvegicus [1], in the assay with Rattus norvegicus [5] and in the assay on Rattus norvegicus [7] were 55.6%, 80.6% and 69.4%, respectively. For the same compound, the results for the zone of inhibition at 100 µg/mL in the assay on Staphylococcus aureus [2] and with Escherichia coli [6] were 16.3 mm and 15 mm, respectively. Further, the results for the zone of inhibition at 50 µg/mL in the assay on Staphylococcus aureus [3] and in the assay on Escherichia coli [4] were 15.2 mm and 13.7 mm, respectively.
For the compound `CCOC(=O)C1=C(N)Oc2c(c(=O)[nH]c3ccc(C)cc23)C1c1ccc(O)cc1` (centres undefined), the inhibition in vivo (usually the change of the read-out against control, counted positive when it falls) at 100 mg/kg was determined as 57.1% with Rattus norvegicus [1], 69.2% in the assay with Rattus norvegicus [5] and 70.4% with Rattus norvegicus [7]. Further, the zone of inhibition at 100 µg/mL in the assay on Staphylococcus aureus [2] turned out to be 19.7 mm; in the assay with Escherichia coli [6] it was 18.2 mm. Also, the results for the zone of inhibition at 50 µg/mL with Staphylococcus aureus [3] and in the assay with Escherichia coli [4] were 17.6 mm and 16.2 mm, respectively.
For the compound `CCOC(=O)C1=C(N)Oc2c(c(=O)[nH]c3ccccc23)C1c1cccc(Cl)c1` (centres undefined), the inhibition in vivo at 100 mg/kg in the assay on Rattus norvegicus [1] amounted to 57.6%; with Rattus norvegicus [5] it was 75.9%; in the assay on Rattus norvegicus [7], 68.5%. The zone of inhibition at 100 µg/mL in the assay with Staphylococcus aureus [2] turned out to be 15.7 mm. Also, the results for the zone of inhibition at 50 µg/mL in the assay with Staphylococcus aureus [3] and with Escherichia coli [4] were 15.4 mm and 14.1 mm, respectively.
As for `CCOC(=O)C1=C(N)Oc2c(c(=O)[nH]c3ccc(C)cc23)C1c1cccc(Cl)c1` (centres undefined), the inhibition in vivo at 100 mg/kg with Rattus norvegicus [1] is 56.4%; with Rattus norvegicus [5], 75.5%; with Rattus norvegicus [7], 69.7%. The values for the zone of inhibition at 100 µg/mL in the assay on Staphylococcus aureus [2] and in the assay with Escherichia coli [6] were 15.7 mm and 15.2 mm, respectively. Further, the zone of inhibition at 50 µg/mL in the assay with Staphylococcus aureus [3] was determined as 14.6 mm; in the assay with Escherichia coli [4], 14.1 mm.
As to `CCOC(=O)C1=C(N)Oc2c(c(=O)[nH]c3ccc(C)cc23)C1c1ccccc1` (centres undefined), the inhibition in vivo at 100 mg/kg with Rattus norvegicus [1] was found to be 56.2%; with Rattus norvegicus [5], 75.2%; with Rattus norvegicus [7], 71.1%. Moreover, the zone of inhibition at 50 µg/mL in the assay on Staphylococcus aureus [3] came to 14.7 mm; in the assay on Escherichia coli [4] it was 15.7 mm. Moreover, the zone of inhibition at 100 µg/mL in the assay on Escherichia coli [6] came to 16.2 mm.
Regarding `CCOC(=O)C1=C(N)Oc2c(c(=O)[nH]c3ccccc23)C1c1ccc(O)cc1` (centres undefined), the results for the inhibition in vivo at 100 mg/kg with Rattus norvegicus [1], with Rattus norvegicus [5] and in the assay with Rattus norvegicus [7] were 58.4%, 75.2% and 63.4%, respectively. The zone of inhibition at 100 µg/mL in the assay on Staphylococcus aureus [2] amounted to 17.6 mm; in the assay with Escherichia coli [6], 17 mm. Moreover, the zone of inhibition at 50 µg/mL in the assay with Staphylococcus aureus [3] came out at 16.9 mm; with Escherichia coli [4], 15.7 mm.
`CCOC(=O)C1=C(N)Oc2c(c(=O)[nH]c3ccccc23)C1c1cccc([N+](=O)[O-])c1` (centres undefined): the inhibition in vivo at 100 mg/kg with Rattus norvegicus [1] is 53.5%; in the assay with Rattus norvegicus [5] it was 79.3%; in the assay on Rattus norvegicus [7], 69%. Besides, the zone of inhibition at 50 µg/mL in the assay with Staphylococcus aureus [3] came to 17.3 mm; with Escherichia coli [4], 16.1 mm. The zone of inhibition at 100 µg/mL with Escherichia coli [6] was 17 mm.
For the compound `CCOC(=O)C1=C(N)Oc2c(c(O)nc3ccccc23)C1c1ccccc1` (centres undefined), the values for the inhibition in vivo at 100 mg/kg in the assay with Rattus norvegicus [1], with Rattus norvegicus [5] and in the assay on Rattus norvegicus [7] were 54.2%, 75.2% and 61.9%, respectively. The zone of inhibition at 100 µg/mL amounted to 16.7 mm with Staphylococcus aureus [2] and 16.2 mm with Escherichia coli [6]. The zone of inhibition at 50 µg/mL in the assay on Staphylococcus aureus [3] worked out at 15.6 mm; in the assay with Escherichia coli [4] it was 15.2 mm.
`CC1COc2c(N3CCN(C)CC3)c(F)cc3c(=O)c(C(=O)O)cn1c23` (centres undefined) [OFLOXACIN]: in the assay on Staphylococcus aureus [2], the zone of inhibition at 100 µg/mL is 24.3 mm. The zone of inhibition at 50 µg/mL with Staphylococcus aureus [3] was found to be 21.2 mm.
Take `CCOC(=O)C1=C(N)Oc2c(c(=O)[nH]c3ccc(C)cc23)C1c1ccccc1Cl` (centres undefined): the inhibition in vivo at 100 mg/kg with Rattus norvegicus [1] was 58.1%; with Rattus norvegicus [5], 74.2%; in the assay on Rattus norvegicus [7] it was 68.1%. Besides, the zone of inhibition at 100 µg/mL in the assay with Staphylococcus aureus [2] and in the assay with Escherichia coli [6] was 17.3 mm each time. Besides, the zone of inhibition at 50 µg/mL was 16.1 mm in the assay on Staphylococcus aureus [3] and 15.4 mm in the assay with Escherichia coli [4].
Consider `CCOC(=O)C1=C(N)Oc2c(c(=O)[nH]c3ccc(C)cc23)C1c1ccc(Cl)cc1` (centres undefined), for which the results for the inhibition in vivo at 100 mg/kg in the assay with Rattus norvegicus [1], with Rattus norvegicus [5] and in the assay on Rattus norvegicus [7] were 59.4%, 77.7% and 70.3%, respectively. Besides, in the assay with Staphylococcus aureus [2], the zone of inhibition at 100 µg/mL is 18.5 mm. Moreover, the zone of inhibition at 50 µg/mL was 15.8 mm in the assay with Staphylococcus aureus [3] and 15.4 mm with Escherichia coli [4].
In the case of `CCOC(=O)C1=C(N)Oc2c(c(=O)[nH]c3ccc(C)cc23)C1c1cccc([N+](=O)[O-])c1` (centres undefined), the inhibition in vivo at 100 mg/kg with Rattus norvegicus [1] was 54.3%; in the assay on Rattus norvegicus [5], 75.5%; in the assay with Rattus norvegicus [7] it was 70.3%. In addition, the zone of inhibition at 100 µg/mL in the assay on Staphylococcus aureus [2] was 19.2 mm; with Escherichia coli [6], 17.4 mm. Moreover, the results for the zone of inhibition at 50 µg/mL with Staphylococcus aureus [3] and with Escherichia coli [4] were 18.1 mm and 16.5 mm, respectively.
As for `CN[C@@H]1[C@H](O[C@H]2[C@H](O[C@H]3[C@H](O)[C@@H](O)[C@H](N=C(N)N)[C@@H](O)[C@@H]3N=C(N)N)O[C@@H](C)[C@]2(O)C=O)O[C@@H](CO)[C@H](O)[C@H]1O` [STREPTOMYCIN], in the assay with Escherichia coli [4], the zone of inhibition at 50 µg/mL was 20.1 mm. The zone of inhibition at 100 µg/mL with Escherichia coli [6] came out at 25.2 mm.
As for `CCOC(=O)C1=C(N)Oc2c(c(=O)[nH]c3ccccc23)C1c1ccc(Cl)cc1` (centres undefined), the inhibition in vivo at 100 mg/kg was determined as 56.2% in the assay with Rattus norvegicus [1], 80.7% with Rattus norvegicus [5] and 66.1% with Rattus norvegicus [7]. Moreover, the zone of inhibition at 100 µg/mL in the assay on Staphylococcus aureus [2] amounted to 16.7 mm; in the assay on Escherichia coli [6] it was 16.2 mm. The zone of inhibition at 50 µg/mL is 16.3 mm in the assay with Staphylococcus aureus [3] and 15.2 mm with Escherichia coli [4].
